Experimental data: patent US9273057B2 (Bristol-Myers Squibb Company, priority 2012, dated 2016)

The compounds below were run against CK2A1 (CK2α/β) (Homo sapiens, UniProt P68400) (assay: CK2 kinase assay, CK2A1 (CK2α/β)). Settings: Table A; read-out: CK2A1 (CK2α/β) (IC50).
Format: biochemical

Sequence of CK2A1 (CK2α/β) (P68400 whole entry, species assumed): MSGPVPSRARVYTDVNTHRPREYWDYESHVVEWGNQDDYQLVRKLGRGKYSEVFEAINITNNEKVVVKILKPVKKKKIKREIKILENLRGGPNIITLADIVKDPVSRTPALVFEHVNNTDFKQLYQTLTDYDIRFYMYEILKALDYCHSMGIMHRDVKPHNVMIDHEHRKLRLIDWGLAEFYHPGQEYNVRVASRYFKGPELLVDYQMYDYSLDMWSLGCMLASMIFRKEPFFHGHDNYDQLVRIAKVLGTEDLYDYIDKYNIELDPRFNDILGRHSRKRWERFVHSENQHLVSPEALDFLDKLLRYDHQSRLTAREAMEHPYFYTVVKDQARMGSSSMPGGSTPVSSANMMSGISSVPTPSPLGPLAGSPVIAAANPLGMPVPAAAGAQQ
Sequence of CK2A1 (CK2α/β) (P67870 whole entry partner, species assumed): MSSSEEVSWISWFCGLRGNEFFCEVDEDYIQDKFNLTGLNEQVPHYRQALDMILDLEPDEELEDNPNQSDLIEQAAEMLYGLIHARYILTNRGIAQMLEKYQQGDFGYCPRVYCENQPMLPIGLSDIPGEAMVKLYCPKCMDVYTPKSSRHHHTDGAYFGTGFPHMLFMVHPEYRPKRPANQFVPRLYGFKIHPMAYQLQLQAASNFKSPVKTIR

Structure (SMILES)	IC50 [nM]
CC(C)(O)CC(=O)N1CC(N2CCN(c3cc(C#N)cc(Nc4nc(NC5CC5)c5ncc(C#N)n5n4)c3Cl)CC2)C1 [Example 490, 2-[(2-chloro-5-cyano-3-{4-[1-(3-hydroxy-3-methylbutanoyl)azetidin-3-yl]piperazin-1-yl}phenyl)amino]-4-(cyclopropylamino)imidazo[2,1-f][1,2,4]triazine-7-carbonitrile]	0.94
CC1(O)CN([C@@H]2CCN(c3cc(C#N)cc(Nc4nc(NC5CC5)c5ncc(C#N)n5n4)c3Cl)C2)C1 [Example 47, (R)-2-(2-chloro-5-cyano-3-(3-(3-hydroxy-3-methylazetidin-1-yl)pyrrolidin-1-yl)phenylamino)-4-(cyclopropylamino)imidazo [1,2-f][1,2,4]triazine-7-carbonitrile]	1.73
N#Cc1cc(Nc2nc(NC3CC3)c3ncc(C#N)n3n2)c(Cl)c(N2CCN3C[C@H](O)C[C@H]3C2)c1 (racemic) [Example 434, (+/−)-2-((2-chloro-5-cyano-3-((7R,8aS)-7-hydroxyhexahydropyrrolo[1,2-a]pyrazin-2(1H)-yl)phenyl)amino)-4-(cyclopropylamino)imidazo[2,1-f][1,2,4]triazine-7-carbonitrile]	0.61
CCNC(=O)N[C@H]1CN(c2cc(C#N)cc(Nc3nc(NC4CC4)c4ncc(C#N)n4n3)c2Cl)C[C@H]1OC (racemic) [Example 32, (+/−) 1-((3S,4R)-1-(2-chloro-5-cyano-3-((7-cyano-4-(cyclopropylamino)imidazo [2,1-f][1,2,4]triazin-2-yl)amino)phenyl)-4-methoxy-3-pyrrolidinyl)-3-ethylurea]	0.8
CN(C)C(=O)C1CN(c2cc(C#N)cc(Nc3nc(NC4CC4)c4ncc(C#N)n4n3)c2Cl)CCN1CC(O)CF (single isomer, unassigned) [Example 315, (+/−) 4-(2-chloro-5-cyano-3-((7-cyano-4-(cyclopropylamino)imidazo [2,1-f][1,2,4]triazin-2-yl)amino)phenyl)-1-(3-fluoro-2-hydroxypropyl)-N,N-dimethyl-2-piperazinecarboxamide]	0.37
CN1CCN(c2cc(C#N)cc(Nc3nc(NC4CC4)c4ncc(C#N)n4n3)c2Cl)CC1C(C)(C)O (racemic) [Example 34, (+/−) 2-((2-chloro-5-cyano-3-(3-(1-hydroxy-1-methylethyl)-4-methyl-1-piperazinyl)phenyl)amino)-4-(cyclopropylamino)imidazo [2,1-f][1,2,4]triazine-7-carbonitrile]	0.92
N#Cc1cc(Nc2nc(NC3CC3)c3ncc(C#N)n3n2)c(Cl)c(N2CC[C@@H]3[C@@H](CCN3[C@H]3CS(=O)(=O)C[C@@H]3O)C2)c1 [Example 452, 2-((2-chloro-5-cyano-3-(1-((3R,4R)-4-hydroxy-1,1-dioxidotetrahydrothiophen-3-yl)hexahydro-1H-pyrrolo[3,2-c]pyridin-5(6H)-yl)phenyl)amino)-4-(cyclopropylamino)imidazo[2,1-f][1,2,4]triazine-7-carbonitrile]	0.82
CC(F)(F)C(=O)N1CC(N2CCN(c3cc(C#N)cc(Nc4nc(NC5CC5)c5ncc(C#N)n5n4)c3Cl)CC2)C1 [Example 516, 2-[(2-chloro-5-cyano-3-{4-[1-(2,2-difluoropropanoyl)azetidin-3-yl]piperazin-1-yl}phenyl)amino]-4-(cyclopropylamino)imidazo[2,1-f][1,2,4]triazine-7-carbonitrile]	4.09
CC1(N2CCN(c3cc(C#N)cc(Nc4nc(NC5CC5)c5ncc(C#N)n5n4)c3Cl)CC2)COC1 [Example 311, 2-((2-chloro-5-cyano-3-(4-(3-methyl-3-oxetanyl)-1-piperazinyl)phenyl)amino)-4-(cyclopropylamino)imidazo[2,1-f][1,2,4]triazine-7-carbonitrile]	0.96
N#Cc1cnc2c(NC3CC3)nc(Nc3cc(OC(F)F)cc(N4CCOCC4)c3Cl)nn12 [Example 406, 2-(2-chloro-5-(difluoromethoxy)-3-morpholinophenylamino)-4-(cyclopropylamino)imidazo[1,2-f][1,2,4]triazine-7-carbonitrile]	2.12
CCNc1nc(Nc2cc(C#N)cc(N3CC[C@@H](NC(=O)OC)[C@H](OP(=O)(O)O)C3)c2Cl)nn2c(C#N)cnc12 [Example 337, methyl ((3R,4R)-1-(2-chloro-5-cyano-3-((7-cyano-4-(ethylamino)imidazo[2,1-f][1,2,4]triazin-2-yl)amino)phenyl)-3-(phosphonooxy)piperidin-4-yl)carbamate]	16
COC(=O)NC1CCN(c2cc(C#N)cc(Nc3nc(NC4CC4)c4ncc(C#N)n4n3)c2Cl)CC1 [Example 146, methyl (1-(2-chloro-5-cyano-3-((7-cyano-4-(cyclopropylamino)imidazo [2,1-f][1,2,4]triazin-2-yl)amino)phenyl)-4-piperidinyl)carbamate]	1.19
CCNc1nc(Nc2cc(C#N)cc(N3CC[C@H]4NCCO[C@@H]4C3)c2Cl)nn2c(C#N)cnc12 (racemic) [Example 371, (+/−)-2-((2-chloro-5-cyano-3-((4aR,8aR)-hexahydro-1H-pyrido[3,4-b][1,4]oxazin-6(7H)-yl)phenyl)amino)-4-(ethylamino)imidazo[2,1-f][1,2,4]triazine-7-carbonitrile]	3.61
N#Cc1cc(Nc2nc(NC3CC3)c3ncc(C#N)n3n2)c(OCCN2CCOCC2)cc1OCCN1CCOCC1 [Example 422, 2-((5-cyano-2,4-bis(2-morpholinoethoxy)phenyl)amino)-4-(cyclopropylamino)imidazo[2,1-f][1,2,4]triazine-7-carbonitrile]	2.73

Results, then the compound that gave them:

IC50 [nM]	Structure (SMILES)
3.35	CO[C@@H](C)C(=O)N1CC(N2CCN(c3cc(C#N)cc(Nc4nc(NC5CC5)c5ncc(C#N)n5n4)c3Cl)CC2)C1 [Example 521, 2-{[2-chloro-5-cyano-3-(4-{1-[(2S)-2-methoxypropanoyl]azetidin-3-yl}piperazin-1-yl)phenyl]amino}-4-(cyclopropylamino)imidazo[2,1-f][1,2,4]triazine-7-carbonitrile]
1.74	CCNc1nc(Nc2cc(C#N)cc(N3CC[C@H]4[C@H](C3)OC(=O)N4C3COC3)c2Cl)nn2c(C#N)cnc12 [Example 840, 2-((2-chloro-5-cyano-3-((3aS,7aS)-1-(oxetan-3-yl)-2-oxohexahydrooxazolo[5,4-c]pyridin-5(2H)-yl)phenyl)amino)-4-(ethylamino)imidazo[2,1-f][1,2,4]triazine-7-carbonitrile]
0.73	N#Cc1cc(Nc2nc(NC3CC3)c3ncc(C#N)n3n2)c(Cl)c(N2CC3(CCN(CC(O)CF)CC3)C2)c1 (racemic) [Example 807, (+/−)-2-((2-chloro-5-cyano-3-(7-(3-fluoro-2-hydroxypropyl)-2,7-diazaspiro[3.5]nonan-2-yl)phenyl)amino)-4-(cyclopropylamino)imidazo[2,1-f][1,2,4]triazine-7-carbonitrile]
0.67	N#Cc1cc(CN2CCC3(CC2)COC3)c(Cl)c(Nc2nc(NC3CC3)c3ncc(C#N)n3n2)c1 [Example 665, 2-((3-(2-oxa-7-azaspiro[3.5]nonan-7-ylmethyl)-2-chloro-5-cyanophenyl)amino)-4-(cyclopropylamino)imidazo[2,1-f][1,2,4]triazine-7-carbonitrile]
1.41	CC(=O)N1CCC2(CCN(c3cc(C#N)cc(Nc4nc(NC5CC5)c5ncc(C#N)n5n4)c3Cl)CC2)C1 [Example 786, 2-((3-(2-acetyl-2,8-diazaspiro[4.5]decan-8-yl)-2-chloro-5-cyanophenyl)amino)-4-(cyclopropylamino)imidazo[2,1-f][1,2,4]triazine-7-carbonitrile]
2.85	CCNc1nc(Nc2cc(C#N)cc(N3CCN(CC4(C)COC4)CC3)c2Cl)nn2c(C#N)cnc12 [Example 603, 2-[(2-chloro-5-cyano-3-{4-[(3-methyloxetan-3-yl)methyl]piperazin-1-yl}phenyl)amino]-4-(ethylamino)imidazo[2,1-f] [1,2,4]triazine-7-carbonitrile]
0.85	N#Cc1cc(Nc2nc(NC3CC3)c3ncc(C#N)n3n2)c(Cl)c(C2CCN(C3CCC3=O)CC2)c1 (stereo not drawn) [Example 644, 2-((2-chloro-5-cyano-3-(1-(2-oxocyclobutyl)piperidin-4-yl)phenyl)amino)-4-(cyclopropylamino)imidazo[2,1-f][1,2,4]triazine-7-carbonitrile]
0.43	N#Cc1cc(Nc2nc(NC3CC3)c3ncc(C#N)n3n2)c(Cl)c(N2CCN(C(=O)OCC3(CO)COC3)CC2)c1 [Example 533, (3-(hydroxymethyl)oxetan-3-yl)methyl 4-(2-chloro-5-cyano-3-((7-cyano-4-(cyclopropylamino)imidazo[2,1-f][1,2,4]triazin-2-yl)amino)phenyl)piperazine-1-carboxylate]
3.82	COC(=O)N1CCC(N2CCN(c3cc(C#N)cc(Nc4nc(NC5CC5)c5ncc(C#N)n5n4)c3Cl)CC2)C1 (stereo not drawn) [Example 591, methyl 3-[4-(2-chloro-5-cyano-3-{[7-cyano-4-(cyclopropylamino)imidazo [2,1-f][1,2,4]triazine-2-yl]amino}phenyl)piperazin-1-yl]pyrrolidine-1-carboxylate]
0.68	N#Cc1cc(Nc2nc(NC3CC3)c3ncc(C#N)n3n2)c(Cl)c(-c2cnn(CCN3CCOCC3)c2)c1 [Example 718, 2-[(2-chloro-5-cyano-3-{1-[2-(morpholin-4-yl)ethyl]-1H-pyrazol-4-yl}phenyl)amino]-4-(cyclopropylamino)imidazo [2,1-f][1,2,4]triazine-7-carbonitrile]
0.48	N#Cc1cc(Nc2nc(NC3CC3)c3ncc(C#N)n3n2)c(Cl)c(C(F)C2CCNCC2)c1 (stereo not drawn) [Example 662, 2-((2-chloro-5-cyano-3-(fluoro(piperidin-4-yl)methyl)phenyl)amino)-4-(cyclopropylamino)imidazo[2,1-f][1,2,4]triazine-7-carbonitrile]
1.3	CC(CN1CC(O)C1)c1cc(C#N)cc(Nc2nc(NC3CC3)c3ncc(C#N)n3n2)c1Cl (stereo not drawn) [Example 573, 2-((2-chloro-5-cyano-3-(1-(3-hydroxyazetidin-1-yl)propan-2-yl)phenyl)amino)-4-(cyclopropylamino)imidazo[2,1-f][1,2,4]triazine-7-carbonitrile]
1.7	N#Cc1cc(Nc2nc(NC3CC3)c3ncc(C#N)n3n2)c(Cl)c(N2CCC3(CC2)CN(CC(=O)N2CCNCC2)C3)c1 [Example 804]
